Reference: PMC4912613, “A broad analysis of resistance development in the malaria parasite” (Nature Communications, 2016)
pEC50: −log10 of the molar value.

Legend:
[1] = tested on: PfCRT-Q352R (parent Dd2); test: Cross-resistance EC50 assay, PfCRT-Q352R; format: cell-based; details: Plasmodium falciparum, DD2, 72 h, read-out: PfCRT:Q352R (Dd2 Parent) Average EC50
Text: (§1) To evaluate potential overlapping activity against known antimalarial drug targets, we performed dose-response studies with each compound against our assembled set of drug-resistant lines and their corresponding parents, in an asexual blood stage proliferation assay (Table 1). Comparisons were made to the drug-sensitive strain 3D7 when a parent was unavailable (TM90C2A, W2 and Dd2). As laboratories conducted EC50 assays with different strains and protocols, all comparisons were made between assays from the same laboratory and under the same assay conditions. Compounds displaying >5-fold EC50 shifts relative to the parent or sensitive strain were flagged as having potentially non-novel targets. Average fold shifts per strain ranged from 0.82 to 2.34, with a median of 1.23 indicating there was not common resistance to any one resistant clone. No resistance patterns were observed when classifying the compounds based on chemical structure, but this was not surprising given the diversity of compounds chosen. On the other hand, given that these confirmed compounds were derived from larger unconfirmed hit lists to which some filtration criteria may have been applied (for example, elimination of obvious dihydrofolate reductase inhibitors[32]), some[10][11][12][13] pre-existing bias may exist in the set. […]
(§2) Alternatively, a SYBR Green-based proliferation approach was used for the 72-h assay, as previously described. Briefly, a culture of either synchronized or asynchronous parasitized RBCs (0.3% parasitemia and 4% haematocrit) in screening medium (identical to supplemented medium above except no serum was added) was exposed to serial drug dilutions. Plates were incubated at 37 °C and gassed with 93% N2, 4% CO2 and 3% O2 for 72 h. Following incubation, 10 × SYBR Green I (Invitrogen; supplied in 10,000 × concentration) in lysis buffer ([…], 5 mM EDTA, 0.16% Saponin wt per vol and 1.6% Triton X vol per vol) was added to the wells and the plates were incubated overnight at room temperature before plate reading. EC50 assays were repeated three times, taking the average EC50 value from each assay set, and removing any outliers using a single iteration of Grubbs' test, eliminating values with z-scores above the critical z-value (α=0.05). The raw EC50 values for synchronized parasites assayed in a 384-well format are listed in Supplementary Data 4. The raw EC50 values for asynchronous parasites assayed in a 96 or 1536-well format are listed in Supplementary Data 5.
(§3) EC50 values for each strain were compared with those of the corresponding parent strain to determine fold-shift changes and identify resistance. To minimize the cause variance between assays, all comparisons were conducted between strains assayed under identical conditions. A one-way ANOVA followed by a Dunnet's post-test was conducted in GraphPad Prism to identify significant changes between the parent and resistant strain.

[2] = tested on: hsp90 (D88Y, parent Dd2); test: Cross-resistance EC50 assay, hsp90; format: cell-based; details: Plasmodium falciparum; SYBR green 72 hour assay; synchronized parasites; 384-well format; strain HSP90 (Dd2 parent)
Text: as §1, §2, §3

[3] = tested on: NITD609-R2 (PfATP4 T418N and P990R, parent Dd2); test: Cross-resistance EC50 assay, NITD609-R2; format: cell-based; details: Plasmodium falciparum, SYBR green 72 hour assay, asynchronized parasites, 96-well or 1536-well format
Text: as §1, §2, §3

[4] = tested on: DHODH (E182D, parent 3D7); test: Cross-resistance EC50 assay, DHODH; format: cell-based; details: Plasmodium falciparum; SYBR green 72 hour assay; synchronized parasites; 384-well format; strain DHODH (3D7 parent)
Text: as §1, §2, §3

[5] = tested on: P. falciparum; test: Rate of killing (parasite viability) assay; format: cell-based, Plasmodium falciparum; details: profile compared with chloroquine, pyrimethamine, atovaquone; 48 h treatment
Method: To identify whether selection success could be predicted by compound speed of action, and to gain a greater insight into the potential mechanisms of action, assays were performed to test the killing rate (Supplementary Data 1)[33]. To quantify the killing rate, viability time-course profiles for each compound were compared with antimalarials known to have fast (chloroquine), moderate (pyrimethamine) or slow (atovaquone) rate of action. These rates were then compared with other compound characteristics, including cross-resistance profile, selection success, potency and structural characteristics to identify any possible trends. […] One compound's rate of killing, MMV666080, was unidentifiable due to compound availability. No correlation was seen between compound structure and speed of action. Additionally, there was no correlation found between killing rate and compound potency against 3D7, nor between potency and selection success (Supplementary Fig. 2).
Rate of killing was determined for each compound following a previously described methodology, which uses the invasion of fresh erythrocytes as surrogate of parasite viability. Briefly, parasites were treated with compounds for 48 h. Compound was washed out and fresh-labelled erythrocytes added to the treated parasites. Double stained erythrocytes (RBC label plus parasite DNA label) were quantified and per cent of survival determined.

Row | Structure (SMILES) | pEC50 [1] | pEC50 [2] | EC50 [3] [µM] | pEC50 [4] | Killing Rate [5]
1 | CC(NCc1ccccc1)c1cc(Cl)ccc1O (stereo not drawn) [MMV665789] | 6.24 | 6.25 | 0.261 | 6.14 | PYR (moderate)
2 | Cc1ccc(Oc2ncccc2C(=O)Cc2cccc3cccnc23)c(C)c1 [MMV020746] | 6.85 | 6.70 | 2.14 | 6.91 | ATQ (slow)
3 | CC(C)(C)OC(=O)N1CCN(c2ccccc2NC(=O)c2cccc(C(F)(F)F)c2Oc2ccc(F)cc2)CC1 [MMV030666] | 6.50 | 6.49 | 0.221 | 6.41 | PYR (moderate)
4 | CCCN(CCC)CC(O)COc1ccccc1C(=O)Nc1ccccc1 (stereo not drawn) [MMV006455] | 5.91 | 5.69 | 0.258 | 5.55 | CQ (fast)
5 | COc1ccc(N2CCN(C(CNC(=O)C3CCCCC3)c3ccc4c(c3)OCO4)CC2)cc1 (stereo not drawn) [MMV019662] | 6.45 | 6.10 | 0.512 | 6.07 | ATQ (slow)
6 | Cc1nc2ccc3ccc(CNc4ccc(C(=O)CC(CCC(=O)O)C(=O)O)cc4)cc3c2c(=O)[nH]1.Cl (stereo not drawn) [MMV027634] | 7.42 | 7.41 | 0.14 | 7.48 | ATQ (slow)
7 | OC(CNC1CCCCC1)Cn1c2ccc(I)cc2c2cc(I)ccc21 (stereo not drawn) [MMV665882] | 7.33 | 7.60 | 0.046 | 7.29 | ATQ (slow)
8 | COc1ccc(-c2nc(NC(=O)Cc3ccc4c(c3)OCCO4)sc2C)cc1 [MMV019719] | 6.61 | 6.55 | 0.328 | 6.74 | CQ (fast)
9 | CCN(CC)CCn1c(=N)n(CC(O)c2ccc(Cl)c(Cl)c2)c2ccccc21.Cl (stereo not drawn) [MMV000248] | 6.48 | 6.48 | 0.252 | 6.50 | CQ (fast)
10 | O=C(Nc1ccccc1O)c1ccc(Oc2cccc(C(=O)Nc3ccccc3O)c2)cc1 [MMV665888] | 6.17 | 6.07 | 0.812 | 5.99 | PYR (moderate)
11 | CCCOCc1cc(CN2CCN(c3cccc(Cl)c3)CC2)c(O)c2ncccc12 [MMV000787] | 6.16 | 6.32 | 1.25 | 6.33 | CQ (fast)
12 | COc1cc(-c2nc(-c3ccccc3)c(-c3ccccc3)[nH]2)ccc1OCCN(C)C [MMV027496] | 6.68 | 6.51 | 0.755 | 6.89 | PYR/CQ (moderate)
13 | COc1cc(C(=O)ON=C(N)Cc2cccc3ccccc23)cc(OC)c1OC [MMV666687] | 6.49 | 6.55 | 0.535 | 5.97 | CQ (fast)
14 | CCN(CC)S(=O)(=O)c1ccc(-c2csc(Nc3ccc(C)c(C)c3)n2)cc1 [MMV009108] | 6.39 | 6.29 | 0.574 | 6.01 | ATQ (slow)
15 | COc1ccccc1CNC(=O)CCn1c(=O)[nH]c2ccsc2c1=O [MMV019066] | 7.20 | 7.82 | 0.014 | 7.28 | ATQ (slow)
16 | CNCc1ccc2nc(-c3coc(Cc4cc(Cl)ccc4OCC(C)C)n3)[nH]c2c1.Cl.Cl [MMV026596] | 6.35 | 6.43 | 0.206 | 6.41 | PYR (moderate)
17 | O=C(NCC(CCCN1CCC(c2c[nH]c3ccccc23)CC1)c1ccccc1)Nc1ccc(Cl)c(Cl)c1 (stereo not drawn) [MMV029272] | 6.57 | 6.15 | 0.152 | 6.83 | PYR (moderate)
18 | Cc1ccc(S(=O)(=O)n2cc(-c3ccnc(N)c3)c3cc(Br)cnc32)cc1 [MMV024114] | 6.30 | 6.08 | 1.86 | 6.40 | PYR/CQ (moderate)
19 | Nc1ccc(-c2nc3cc(Oc4ccc(Oc5ccc6[nH]c(-c7ccc(N)cc7)nc6c5)cc4)ccc3[nH]2)cc1 [MMV011895] | 6.69 | 6.51 | 0.56 | 6.77 | CQ (fast)
20 | COC(=O)c1ccc(C2C3=C(O)CC(c4ccc(F)cc4)CC3=Nc3ccccc3N2C(=O)c2ccccc2)cc1 (stereo not drawn) [MMV011438] | 6.76 | 6.90 | 0.306 | 6.25 | ATQ (slow)
21 | COc1cc(-c2nc(-c3ccccc3)c(-c3ccccc3)[nH]2)cc(OC)c1O [MMV020750] | 6.14 | 6.15 | 1.22 | 6.29 | PYR (moderate)
22 | Nc1ccc(-c2nc3cc(Cc4ccc5[nH]c(-c6ccc(N)cc6)nc5c4)ccc3[nH]2)cc1 [MMV665943] | 6.39 | 6.37 | 0.334 | 6.47 | CQ (fast)
23 | Cl.c1ccc2c(NCCCCCCNc3c4c(nc5ccccc35)CCCC4)c3c(nc2c1)CCCC3 [MMV019555] | 6.78 | 6.70 | 0.188 | 7.25 | CQ (fast)
24 | Cc1cc(Nc2ccc(OCc3ccccc3)cc2)nc2cc(O)ccc12 [MMV007181] | 6.88 | 6.92 | 0.128 | 6.69 | PYR/CQ (moderate)
